According to patent US10196386B2, “Compounds having muscarinic receptor antagonist and beta2 adrenergic receptor agonist activity” (priority 2016, dated 2019):

Tests used:
[1] = target: T1, Human M3 receptor (Homo sapiens, UniProt P20309); experiment: biochemical; format: binding; conditions: read-out: M3 Range
T1 construct: purchased Perkin Elmer

[2] = target: T2, Human β2 adrenoceptor (Homo sapiens, UniProt P07550); experiment: β2 adrenoceptor radioligand binding assay
T2 construct: purchased Perkin Elmer
Experimental: β2 Adrenoceptor Radioligand Binding Assay
Human β2 adrenoceptor membranes (7.5 ug/well) from Perkin Elmer were incubated with 0.3 nM 125-I Cyanopindolol with or without test compounds, or a saturating concentration of s-propranolol (2 μM) for the determination of non-specific binding. The assay was carried out in 96-well polypropylene plates in a volume of 200 ul. The assay buffer used was 25 mM HEPES, 0.5% BSA (w/v), 1 mM EDTA, 0.02% ascorbic acid (v/v), (pH 7.4). The final assay concentration of DMSO was 0.5% (v/v). The plates were sealed and incubated for 1 h at room temperature on an orbital shaker (slow speed). Membranes were harvested onto 96-well unifilter GF/C filter plates pre-treated with 0.5% polyethyleneimine (v/v), using a filter manifold, washed six times with 200 ul of wash buffer containing 10 mM HEPES and 500 mM NaCl. The plates were dried before addition of 50 μl of microscint-0, sealed then read in a Trilux Microbeta scintillation counter. IC50 values are determined from competition curves using a non-linear curve fitting program. Ki values were calculated from IC50 values by the Cheng and Prusoff equation.

T2 sequence (P07550 whole entry): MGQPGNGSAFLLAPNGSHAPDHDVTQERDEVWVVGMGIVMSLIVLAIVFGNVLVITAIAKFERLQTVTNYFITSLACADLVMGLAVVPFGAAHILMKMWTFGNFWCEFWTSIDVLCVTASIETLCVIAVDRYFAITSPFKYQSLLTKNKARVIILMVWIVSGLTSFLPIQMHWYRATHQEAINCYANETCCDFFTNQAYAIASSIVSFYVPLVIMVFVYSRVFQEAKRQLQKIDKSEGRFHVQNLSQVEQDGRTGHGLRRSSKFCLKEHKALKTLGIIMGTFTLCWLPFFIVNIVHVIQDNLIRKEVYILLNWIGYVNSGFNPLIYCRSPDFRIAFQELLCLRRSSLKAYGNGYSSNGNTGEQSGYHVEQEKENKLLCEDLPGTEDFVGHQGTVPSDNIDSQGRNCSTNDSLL
T1 sequence (P20309 whole entry): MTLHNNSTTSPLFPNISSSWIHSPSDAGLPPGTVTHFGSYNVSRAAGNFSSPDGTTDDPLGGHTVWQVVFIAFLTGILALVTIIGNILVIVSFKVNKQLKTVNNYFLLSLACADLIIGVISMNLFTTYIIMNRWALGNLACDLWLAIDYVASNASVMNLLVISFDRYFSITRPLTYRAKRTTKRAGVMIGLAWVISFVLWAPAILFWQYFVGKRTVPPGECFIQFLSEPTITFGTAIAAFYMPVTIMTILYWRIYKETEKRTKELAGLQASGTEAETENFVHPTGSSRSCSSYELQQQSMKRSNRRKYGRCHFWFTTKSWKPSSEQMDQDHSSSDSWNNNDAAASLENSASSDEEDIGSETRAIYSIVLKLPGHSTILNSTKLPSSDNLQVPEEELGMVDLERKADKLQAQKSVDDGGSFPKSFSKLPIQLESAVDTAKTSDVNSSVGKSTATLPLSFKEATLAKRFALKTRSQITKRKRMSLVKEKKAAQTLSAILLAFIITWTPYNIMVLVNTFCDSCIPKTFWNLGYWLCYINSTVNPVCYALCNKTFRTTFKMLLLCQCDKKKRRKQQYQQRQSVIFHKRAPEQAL

Row | SMILES | IC50 [1] [nM] | IC50 [2] [nM]
1 | O=C(NCc1ccc(-c2cccc([C@](O)(C(=O)OC3CCC4(CC3)CCN(Cc3ccccc3)CC4)c3ccccc3)c2)s1)c1ccc(CNC[C@H](O)c2ccc(O)c3[nH]c(=O)ccc23)cc1 [Compound 2H, 3-Benzyl-3-azaspiro[5.5]undecan-9-yl (S)-2-hydroxy-2-(3-(5-((4-((((R)-2-hydroxy-2-(8-hydroxy-2-oxo-1,2-dihydroquinolin-5-yl)ethyl)amino)-methyl)benzamido)methyl)thiophen-2-yl)phenyl)-2-phenylacetate] | > 3 | < 0.3
2 | O=C(c1ccc(CCNC[C@H](O)c2ccc(O)c3[nH]c(=O)ccc23)cc1)N1CC=C(c2cccc([C@](O)(C(=O)OCC3CCN(Cc4ccccc4)CC3)c3ccccc3)c2)CC1 [Compound 3, (1-Benzylpiperidin-4-yl)methyl (S)-2-hydroxy-2-(3-(1-(4-(2-(((R)-2-hydroxy-2-(8-hydroxy-2-oxo-1,2-dihydroquinolin-5-yl)ethyl)amino)ethyl)benzoyl)-1,2,3,6-tetrahydropyridin-4-yl)phenyl)-2-phenylacetate] | < 0.3 | < 0.3
3 | O=C(NCc1ccc(-c2cccc([C@](O)(C(=O)OCC3CCN(Cc4ccccc4)CC3)c3ccccc3)c2)o1)c1ccc(CNC[C@H](O)c2ccc(O)c3[nH]c(=O)ccc23)cc1 [Compound 3A, (1-Benzylpiperidin-4-yl)methyl (S)-2-hydroxy-2-(3-(5-((4-((((R)-2-hydroxy-2-(8-hydroxy-2-oxo-1,2-dihydroquinolin-5-yl)ethyl)amino)methyl)-benzamido)methyl)furan-2-yl)phenyl)-2-phenylacetate] | 0.3 to 3 | 0.3 to 3
4 | O=C(c1ccc(CNC[C@H](O)c2ccc(O)c3[nH]c(=O)ccc23)cc1)N1CC=C(c2cccc([C@](O)(C(=O)OCC3CCN(Cc4ccccc4)CC3)c3ccccc3)c2)CC1 [Compound 3B, (1-Benzylpiperidin-4-yl)methyl (S)-2-hydroxy-2-(3-(1-(4-((((R)-2-hydroxy-2-(8-hydroxy-2-oxo-1,2-dihydroquinolin-5-yl)ethyl)amino)methyl)benzoyl)-1,2,3,6-tetrahydropyridin-4-yl)phenyl)-2-phenylacetate] | 0.3 to 3 | < 0.3
5 | COc1cc(C(=O)N2CC=C(c3cccc([C@](O)(C(=O)OCC4CCN(Cc5ccccc5)CC4)c4ccccc4)c3)CC2)ccc1CNC[C@H](O)c1ccc(O)c2[nH]c(=O)ccc12 [Compound 3C, (1-Benzylpiperidin-4-yl)methyl (S)-2-hydroxy-2-(3-(1-(4-((((R)-2-hydroxy-2-(8-hydroxy-2-oxo-1,2-dihydroquinolin-5-yl)ethyl)amino)methyl)-3-methoxybenzoyl)-1,2,3,6-tetrahydropyridin-4-yl)phenyl)-2-phenylacetate] | < 0.3 | < 0.3
6 | COc1c(CNC[C@H](O)c2ccc(O)c3[nH]c(=O)ccc23)ccc(C(=O)N2CC=C(c3cccc([C@](O)(C(=O)OCC4CCN(Cc5ccccc5)CC4)c4ccccc4)c3)CC2)c1F [Compound 3D, (1-Benzylpiperidin-4-yl)methyl (S)-2-(3-(1-(2-fluoro-4-((((R)-2-hydroxy-2-(8-hydroxy-2-oxo-1,2-dihydroquinolin-5-yl)ethyl)amino)methyl)-3-methoxybenzoyl)-1,2,3,6-tetrahydropyridin-4-yl)phenyl)-2-hydroxy-2-phenylacetate] | 0.3 to 3 | 0.3 to 3
7 | COc1cc(CNC[C@H](O)c2ccc(O)c3[nH]c(=O)ccc23)ccc1C(=O)N1CC=C(c2cccc([C@](O)(C(=O)OCC3CCN(Cc4ccccc4)CC3)c3ccccc3)c2)CC1 [Compound 3E, (1-Benzylpiperidin-4-yl)methyl (S)-2-hydroxy-2-(3-(1-(4-((((R)-2-hydroxy-2-(8-hydroxy-2-oxo-1,2-dihydroquinolin-5-yl)ethyl)amino)methyl)-2-methoxybenzoyl)-1,2,3,6-tetrahydropyridin-4-yl)phenyl)-2-phenylacetate] | < 0.3 | < 0.3
8 | O=C(c1ccc(CCNC[C@H](O)c2ccc(O)c3[nH]c(=O)ccc23)cc1)N1CC=C(c2cccc([C@](O)(C(=O)OCC3CCN(Cc4ccccc4)CC3)c3ccccc3)c2)C1 [Compound 3F, (1-Benzylpiperidin-4-yl)methyl (S)-2-hydroxy-2-(3-(1-(4-(2-(((R)-2-hydroxy-2-(8-hydroxy-2-oxo-1,2-dihydroquinolin-5-yl)ethyl)amino)ethyl)benzoyl)-2,5-dihydro-1H-pyrrol-3-yl)phenyl)-2-phenylacetate] | 0.3 to 3 | < 0.3
9 | O=C(c1ccc(CNC[C@H](O)c2ccc(O)c3[nH]c(=O)ccc23)cc1)N1CC=C(c2cccc([C@](O)(C(=O)OCC3CCN(Cc4ccccc4)CC3)c3ccccc3)c2)C1 [Compound 3G, (1-Benzylpiperidin-4-yl)methyl (S)-2-hydroxy-2-(3-(1-(4-((((R)-2-hydroxy-2-(8-hydroxy-2-oxo-1,2-dihydroquinolin-5-yl)ethyl)amino)methyl)benzoyl)-2,5-dihydro-1H-pyrrol-3-yl)phenyl)-2-phenylacetate] | 0.3 to 3 | < 0.3
10 | COc1cc(C(=O)N2CCC=C(c3cccc([C@](O)(C(=O)OCC4CCN(Cc5ccccc5)CC4)c4ccccc4)c3)C2)ccc1CNC[C@H](O)c1ccc(O)c2[nH]c(=O)ccc12 [Compound 3H, (1-Benzylpiperidin-4-yl)methyl (S)-2-hydroxy-2-(3-(1-(4-((((R)-2-hydroxy-2-(8-hydroxy-2-oxo-1,2-dihydroquinolin-5-yl)ethyl)amino)methyl)-3-methoxybenzoyl)-1,2,5,6-tetrahydropyridin-3-yl)phenyl)-2-phenylacetate] | 0.3 to 3 | < 0.3
11 | O=C(c1ccc(CNC[C@H](O)c2ccc(O)c3[nH]c(=O)ccc23)cc1)N1CCC=C(c2cccc([C@](O)(C(=O)OCC3CCN(Cc4ccccc4)CC3)c3ccccc3)c2)C1 [Compound 3I, (1-Benzylpiperidin-4-yl)methyl (S)-2-hydroxy-2-(3-(1-(4-((((R)-2-hydroxy-2-(8-hydroxy-2-oxo-1,2-dihydroquinolin-5-yl)ethyl)amino)methyl)benzoyl)-1,2,5,6-tetrahydropyridin-3-yl)phenyl)-2-phenylacetate] | 0.3 to 3 | 0.3 to 3
12 | COc1cc(C(=O)N2CC=C(c3cccc([C@](O)(C(=O)OCC4CCN(Cc5ccccc5)CC4)c4ccccc4)c3)C2)ccc1CNC[C@H](O)c1ccc(O)c2[nH]c(=O)ccc12 [Compound 3J, (1-Benzylpiperidin-4-yl)methyl (S)-2-hydroxy-2-(3-(1-(4-((((R)-2-hydroxy-2-(8-hydroxy-2-oxo-1,2-dihydroquinolin-5-yl)ethyl)amino)methyl)-3-methoxybenzoyl)-2,5-dihydro-1H-pyrrol-3-yl)phenyl)-2-phenylacetate] | < 0.3 | < 0.3
13 | O=C(NCc1ncc(-c2cccc([C@](O)(C(=O)OCC3CCN(Cc4ccccc4)CC3)c3ccccc3)c2)cn1)c1ccc(CNC[C@H](O)c2ccc(O)c3[nH]c(=O)ccc23)cc1 [Compound 4, (1-Benzylpiperidin-4-yl)methyl (S)-2-hydroxy-2-(3-(2-((4-((((R)-2-hydroxy-2-(8-hydroxy-2-oxo-1,2-dihydroquinolin-5-yl)ethyl)amino)methyl)benzamido)-methyl)pyrimidin-5-yl)phenyl)-2-phenylacetate] | 0.3 to 3 | 0.3 to 3
